Experimental data published in US20240262807A1, “COMPOUND USED AS BCR-ABL INHIBITOR” (CHIA TAI TIANQING PHARMACEUTICAL GROUP CO., LTD., priority 2021, published 2024).
pIC50: −log10 of the molar value.

Legend:
K562 cells = assay: Inhibitory effect of compounds on proliferation of K562 cells (CCK-8); assay type: cell-based; settings: Homo sapiens, 72 h with compound, CCK-8, 5% serum
Method: K562 cells in logarithmic growth phase and good cell condition were added to a centrifuge tube and centrifuged at 1000 rpm for 5 min in a low speed centrifuge. […] The cells were seeded on a 96-well plate at 100 µL/well using a multi-channel pipette and cultured in a cell incubator at 37° ° C. 5% CO2 and saturated humidity. […] Inhibition rate (%)=(mean value of negative control group−mean value of experimental group)/(mean value of negative control group−mean value of blank group)×100%. A dose-response curve was fitted by four-parameter analysis, with the logarithm of compound concentration serving as abscissa and inhibition rate serving as ordinate, such that IC50 was calculated.

[1] = biological target: T1, Ba/F3-BCR-ABL1-T315I-C3 cells (Homo sapiens, UniProt P00519, T315I, cells depend on it); assay: Inhibitory effect of compounds on proliferation of BCR-ABL T315I-transfected Ba/F3 cells (CCK-8); assay type: cell-based; settings: 72 h with compound, CCK-8, 5% serum, read-out: IC50 (nM) Ba/F3-BCR-ABL1 T315I
T1 construct: fused on or other part: P11274 (Breakpoint cluster region protein)
Method: Ba/F3-BCR-ABL1-T315I-C3 cells in logarithmic growth phase and good cell condition were added to a centrifuge tube and centrifuged at 1000 rpm for 5 min in a low speed centrifuge. The supernatant was discarded, and 5 mL of complete medium (RPMI 1640 basic medium+10% FBS) was added using a pipette for cell resuspension. The cells were counted using a cell counter, diluted with complete medium to a cell density of 6×10^4 cells/mL, and an equivalent amount of RPMI 1640 basic medium was added to adjust the serum concentration to 5% and the cell density to 3×10^4 cells/mL for plate seeding. The cells were seeded on a 96-well plate at 100 μL/well using a multi-channel pipette and cultured in a cell incubator at 37° C. 5% CO2 and saturated humidity. After 24 h incubation, compounds were loaded using a nanoliter pipettor, 8 concentrations (1000 nM, 250 nM, 63 nM, 16 nM, 3.9 nM, 0.98 nM, 0.24 nM, 0.061 nM) were set for each compound, and 2 replicate wells were set for each concentration; cells with no compounds added were taken as a negative control, and a plating medium with no cells added was taken as a blank control. After 72 h. […] Inhibition rate (%)=(mean value of negative control group−mean value of experimental group)/(mean value of negative control group−mean value of blank group)×100%. A dose-response curve was fitted by four-parameter analysis, with the logarithm of compound concentration serving as abscissa and inhibition rate serving as ordinate, such that ICso was calculated.

[2] = Evaluation of pharmacokinetics in mice; assay type: in vivo; settings: mouse, plasma, po, ICR mice; for bioavailability: ig 10 mg/kg, (intragastric AUC×intravenous dosage)/(intravenous AUC×intragastric dosage)×100%, read-out: Fabs(%) absolute bioavailability; for Cmax / Tmax / half-life / AUC(0-t) / MRT last: ig, 10 mg/kg; for AUC(0-t): read-out: AUC(0-24); for MRT last: read-out: MRT(0-24)
Method: ICR mice (purchased from Shanghai Sippe-Bk Lab Animal Co., Ltd.) of 18-22 g were randomized into groups of 9 after 3-5 days of acclimatization and administered with the compounds at a dose of 10 mg/kg by intragastric administration. The animals to be tested (ICR mice) were fasted overnight before administration and food was provided 4 h after administration, and water was freely drunk before and after the experiment and during the experiment. After intragastric administration, about 0.1 mL of blood was collected from the orbit at 0.25 (15 min), 0.5 (30 min), 1, 2, 3, 4, 6, 8, 10, and 24 h (Each mouse was subjected to blood collection at 3-4 time points, with three mice per time point). The blood samples were mixed with EDTA-K2 anticoagulant, transferred to a centrifuge within 30 min, and then centrifuged at 4000 rpm for 10 min at 4° C. to separate the plasma. All the plasma samples were collected and immediately stored at −20° C. for testing.
300 μL of acetonitrile solution containing an internal standard (20 ng/ml diazepam) was added to 30 μL of the plasma sample and standard curve sample. The mixture was shaken and mixed well for 5 min, and centrifuged at 13.000 rpm for 10 min. 70 μL of supernatant was taken and diluted with 70 μL of ultrapure water. After being mixed well, 1 μL of the resulting sample was subjected to LC/MS/MS, and a chromatogram was recorded.
Oral exposure of the compounds was evaluated by in vivo pharmacokinetic experiments in mice. The relevant pharmacokinetic parameters were fitted by using DAS3.2.5 software, where absolute bioavailability Fabs(%)=(intragastric AUC×intravenous dosage)/(intravenous AUC×intragastric dosage)×100%.

hERG potassium channel = biological target: T2, hERG potassium channel (Homo sapiens, UniProt Q12809); assay: Evaluation of cardiac safety: hERG potassium channel whole-cell patch clamp in HEK-293 cells; assay type: cell-based; settings: HEK-293 cells over-expressing hERG potassium channel, tail current, room temperature
T2 construct: expressed in transfected cells; host or cells: HEK-293 cells, stably transformed
Method: The cell strains were derived from HEK-293 cells over-expressing hERG potassium channel. The cells were cultured in an incubator at 37° C. 5% CO2. […]
The stably-transformed cells were seeded onto a slide at a cell density of less than 50% and cultured overnight. […] Membrane currents were recorded by using a HEKA EPC-10 patch clamp amplifier and PATCHMASTER acquisition system (HEKA Instruments Inc., D-67466 Lambrecht. Pfalz. Germany) and analyzed and counted by using Origin 8.5 (OriginLab Corporation. Northampton. MA) software and Microsoft Excel (results in Table 4). […]
Channel currents were recorded in the experiments using a whole-cell recording mode. An extracellular fluid (approximately 2 mL per min) was firstly perfused, the process was continuously recorded, and the current was waited for stabilization (current decay (Run-Down) was less than 5% in 5 min); at this point, the tail current peak value was the control current value. Then, the extracellular fluid containing the test drug was perfused, and the process was continuously recorded until the inhibitory effect of the drug on the hERG current reached a stable state; at this point, the tail current peak value was the current value after dosing. […]

T2 sequence (Q12809 whole entry): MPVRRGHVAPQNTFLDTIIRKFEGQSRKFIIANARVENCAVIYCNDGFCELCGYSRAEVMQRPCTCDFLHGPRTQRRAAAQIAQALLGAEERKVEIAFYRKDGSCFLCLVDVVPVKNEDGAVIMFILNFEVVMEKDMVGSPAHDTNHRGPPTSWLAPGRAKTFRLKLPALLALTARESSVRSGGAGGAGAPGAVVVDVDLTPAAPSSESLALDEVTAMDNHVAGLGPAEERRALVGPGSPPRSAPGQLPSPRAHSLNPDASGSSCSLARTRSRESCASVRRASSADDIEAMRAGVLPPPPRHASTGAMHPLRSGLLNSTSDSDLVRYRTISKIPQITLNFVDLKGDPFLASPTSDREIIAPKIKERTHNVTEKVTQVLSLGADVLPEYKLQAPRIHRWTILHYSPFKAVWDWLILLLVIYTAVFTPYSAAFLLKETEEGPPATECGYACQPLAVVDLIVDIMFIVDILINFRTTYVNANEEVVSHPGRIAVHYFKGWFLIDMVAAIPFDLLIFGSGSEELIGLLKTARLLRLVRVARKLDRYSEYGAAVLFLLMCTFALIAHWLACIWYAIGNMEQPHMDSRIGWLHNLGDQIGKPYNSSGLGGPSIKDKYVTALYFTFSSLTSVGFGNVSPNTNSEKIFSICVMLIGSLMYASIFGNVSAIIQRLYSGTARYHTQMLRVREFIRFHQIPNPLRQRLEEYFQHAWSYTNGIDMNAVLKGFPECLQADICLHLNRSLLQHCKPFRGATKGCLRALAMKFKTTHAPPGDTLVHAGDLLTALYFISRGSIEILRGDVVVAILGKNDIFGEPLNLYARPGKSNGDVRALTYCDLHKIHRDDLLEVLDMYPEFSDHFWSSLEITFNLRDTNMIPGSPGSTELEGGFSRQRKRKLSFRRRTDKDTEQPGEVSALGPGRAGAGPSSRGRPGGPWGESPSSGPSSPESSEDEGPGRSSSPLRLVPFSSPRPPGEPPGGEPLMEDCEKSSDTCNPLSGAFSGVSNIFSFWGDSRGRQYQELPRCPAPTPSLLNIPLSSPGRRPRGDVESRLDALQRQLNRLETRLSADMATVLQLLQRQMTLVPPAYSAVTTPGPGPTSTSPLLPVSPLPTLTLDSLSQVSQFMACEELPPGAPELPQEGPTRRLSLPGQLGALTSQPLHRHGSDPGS

Compound	IC50 (K562 cells)	GI50 [1]	bioavailability [2]	Cmax [2]	Tmax [2]	half-life [2]	AUC(0-t) [2]	MRT last [2]	pIC50 (hERG potassium channel)
Cn1ccc(-c2cc(C(=O)Nc3ccc(OC(F)(F)Cl)cc3)cnc2N2CC[C@@H](F)C2)cc1=O [Compound 16]	2.1 nM	4.7 nM	93.2%	1880 ng/mL	3 h	1.46 h	9690 ng·h/mL	3.33 h	–
CN(C)c1ncc(C(=O)Nc2ccc(OC(F)(F)Cl)cc2)cc1-c1cc(=O)n(C)cn1 [Compound 61]	5.6 nM	3 nM	95.1%	3200 ng/mL	2 h	10.4 h	24100 ng·h/mL	4.83 h	–
O=C(Nc1ccc(OC(F)(F)Cl)cc1)c1cnc(N2CC(O)C2)c(-c2cc3c([nH]2)C(=O)NC3)c1 [Compound 104]	1.2 nM	0.86 nM	–	–	–	–	–	–	< 4.52
O=C(Nc1ccc(OC(F)(F)Cl)cc1)c1cnc(N2CC[C@@H](O)C2)c(-c2cc3c([nH]2)C(=O)NC3)c1 [Compound 106]	1.1 nM	0.54 nM	–	–	–	–	–	–	< 4.52
